Entries after “also recorded” stand apart in the source; their conditions may differ. Where two headings read alike, the source gives them in different places.
Assays:
SrtA = target: T1, SrtA (Staphylococcus aureus, UniProt Q2FV99); experiment: Sortase A activity assay (FRET, SensoLyte 520 kit); format: biochemical, S. aureus; conditions: for SrtA inhibitory activity relative to myricetin (fold lower; myricetin IC50 fold lower than this compound): ratio of IC50 values to myricetin
T1 construct: purchased Anaspec, San Jose, CA, USA
T1 sequence (Q2FV99 whole entry): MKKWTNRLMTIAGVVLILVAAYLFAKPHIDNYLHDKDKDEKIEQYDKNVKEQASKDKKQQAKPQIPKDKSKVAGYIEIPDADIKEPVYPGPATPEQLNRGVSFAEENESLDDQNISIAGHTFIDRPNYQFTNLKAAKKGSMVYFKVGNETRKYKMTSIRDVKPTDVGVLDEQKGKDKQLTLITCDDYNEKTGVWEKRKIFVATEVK
Method: The inhibitory activity of all of the compounds was determined by quantifying the increase in fluorescence intensity upon a cleavage 5-FAM/QXL® FRET substrate using a SensoLyte® 520 Sortase A Activity Assay Kit (Anaspec, San Jose, CA, USA). According to kit protocol, reactions were performed in a 96-well plate, with each well containing 10 μL test compound solution, 40 μL enzyme solution, and 50 μL sortase substrate solution. All compounds were dissolved in dimethyl sulfoxide (DMSO) and diluted with sterilized distilled water. The final concentration of DMSO was 1%. Each compound diluted in buffer to the tested concentration and was checked for intrinsic fluorescence. According to the kit protocol, we used the enzyme without the test compound as a control, a 1% DMSO control, and a substrate control. We used the kit inhibitor, 4-hydroxymercuribenzoic acid (HMB), as the positive control. Reactions were carried out for 1 h at room temperature and analyzed fluorometrically (SpectraMAX Gemini XS, CA, USA) at Ex/Em = 490 nm/520 nm. All reported values are the means of triplicate assays.

in vivo = conditions: in vivo
Method: (§1) The Daphnia magna test was performed in 4 mL 12-tissue culture wells, using 10 daphnids/well, with each sample being tested in duplicate. […] All experiments were conducted in the dark, in a plant growth chamber (Sanyo MLR-351 H, San Diego, CA, USA) at 25 ± 1 °C [32, 33].
(§2) Statistical analysis of the inhibitory effect on SrtA and the Daphnia magna bioassay was performed using GraphPad Prism version 5.01 software (GraphPad Software, Inc., La Jolla, CA, USA). A student’s t-test (p < 0.05) was applied in order to analyze the results obtained from replicates. […] The inhibition (I %) and lethality percentage (L %) values were calculated and plotted against the logarithm of concentrations and the corresponding curves were calculated using the least squares fit method. […] Whenever the obtained results permitted, the upper and lower limits of the 95% confidence interval (95% CI) and the correlation coefficient (r^2) were calculated.

Daphnia magna = experiment: in vivo; conditions: for Maximum lethality: after 48 h, tested 0.5 to 100 μM; for Highest lethality: after 48 h of exposure at 100 μM
Method: as §1, §2

Q: For C[C@@H]1CC[C@H]2[C@@H](C)C(=O)O[C@@H]3O[C@@]4(C)CC[C@@H]1[C@]32OO4 [Artemisinin, reference compound], which “SrtA inhibition (result in words)” value (SrtA) is on record?
A: statistically significant SrtA inhibition

Q: And the inhibition at 50 µM (SrtA)?
A: 5.32%

Q: Which LC50 at 48 h (in vivo) does the source give for O=c1cc(-c2ccccc2)oc2cc(O)cc(O)c12 [Chrysin] here?
A: 17.7 µM

Q: And the “SrtA inhibition (result in words)” value (SrtA)?
A: statistically significant SrtA inhibition

Q: With O=c1ccc2cc(O)c(O)cc2o1 [Esculetin] as the molecule, how does the Maximum lethality (Daphnia magna) read?
A: ≤ 30%

Q: What about the Highest lethality (Daphnia magna) of the same molecule?
A: ≤ 30%

Q: And the IC50 (SrtA)?
A: 36.2 µM

Q: And the “SrtA inhibition (result in words)” value (SrtA)?
A: statistically significant SrtA inhibition

Q: And the inhibition at 250 µM (SrtA)?
A: 83.6%

Q: What about the “SrtA inhibitory activity relative to myricetin (fold lower; myricetin IC50 fold lower than this compound)” value (SrtA) of the same molecule?
A: eight-fold

Q: With O=c1ccc2cc(O[C@@H]3O[C@H](CO)[C@@H](O)[C@H](O)[C@H]3O)c(O)cc2o1 [Esculin, Esculin sesquihydrate] as the molecule, how does the “SrtA inhibition (result in words)” value (SrtA) read?
A: low SrtA inhibition

Q: Which inhibition at 500 µM (SrtA) does the source give for O=c1c(-c2ccc(O)cc2)coc2cc(O)cc(O)c12 [Genistein] here?
A: 9.63%

Q: What does the source list for O=C(O)c1cc[c]([Hg][OH])cc1 [HMB, 4-hydroxymercuribenzoic acid, reference compound]?
A: Inhibition (%) (SrtA; 5 μM, after 1 h of incubation): 93.87%; IC50 (SrtA; after 1 h of incubation, read-out: IC50): 0.114 µM

Q: What does the source list for O=c1c(O)c(-c2cc(O)c(O)c(O)c2)oc2cc(O)cc(O)c12 [Myricetin]?
A: Maximum lethality (Daphnia magna): ≤ 30%; Highest lethality (Daphnia magna): ≤ 30%; IC50 (SrtA): 4.63 µM; SrtA inhibition (result in words) (SrtA): statistically significant SrtA inhibition; inhibition at 100 µM (SrtA): 92%

Q: Which Maximum lethality (Daphnia magna) does the source give for COc1cc2c(cc1OC)-c1cc3ccc(OC)c(OC)c3c[n+]1CC2 [Palmatine chloride] here?
A: ≤ 30%

Q: What about the Highest lethality (Daphnia magna) of the same molecule?
A: ≤ 30%

Q: And the IC50 (SrtA)?
A: 52.8 µM

Q: And the “SrtA inhibition (result in words)” value (SrtA)?
A: statistically significant SrtA inhibition

Q: What about the inhibition at 500 µM (SrtA) of the same molecule?
A: 85.3%

Q: And the “SrtA inhibitory activity relative to myricetin (fold lower; myricetin IC50 fold lower than this compound)” value (SrtA)?
A: eleven-fold

Q: What does the source list for O=C(O)[C@]1(O)C[C@@H](O)[C@@H](O)[C@H](O)C1 [Quinic acid]?
A: SrtA inhibition (result in words) (SrtA): statistically significant SrtA inhibition; inhibition at 500 µM (SrtA): 19.6%

Q: Which Maximum lethality (Daphnia magna) does the source give for C[C@@H]1O[C@@H](OC[C@H]2O[C@@H](Oc3c(-c4ccc(O)c(O)c4)oc4cc(O)cc(O)c4c3=O)[C@H](O)[C@@H](O)[C@@H]2O)[C@H](O)[C@H](O)[C@H]1O [Rutin trihydrate] here?
A: ≤ 30%

Q: And the Highest lethality (Daphnia magna)?
A: ≤ 30%

Q: And the “SrtA inhibition (result in words)” value (SrtA)?
A: statistically significant SrtA inhibition

Q: What about the inhibition at 500 µM (SrtA) of the same molecule?
A: 28.7%

Q: For C[C@@H]1O[C@@H](OC[C@H]2O[C@@H](Oc3c(-c4ccc(OCCO)c(OCCO)c4)oc4cc(OCCO)cc(O)c4c3=O)[C@H](O)[C@@H](O)[C@@H]2O)[C@H](O)[C@H](O)[C@H]1O [Troxerutin], which Maximum lethality (Daphnia magna) is on record?
A: ≤ 30%

Q: What about the Highest lethality (Daphnia magna) of the same molecule?
A: ≤ 30%

Q: What about the “SrtA inhibition (result in words)” value (SrtA) of the same molecule?
A: statistically significant SrtA inhibition

Q: What about the inhibition at 500 µM (SrtA) of the same molecule?
A: 23.5%

Q: Which LC50 at 48 h (in vivo) does the source give for O=c1ccc2ccc(O)cc2o1 [Umbelliferone] here?
A: 105 µM

Q: What about the “SrtA inhibition (result in words)” value (SrtA) of the same molecule?
A: statistically significant SrtA inhibition; also recorded: small inhibitory effect

Q: What about the inhibition at 250 µM (SrtA) of the same molecule?
A: 4.04%

Q: With O=C(O)/C=C/c1ccc(O)c(O)c1 [caffeic acid, Caffeic acid] as the molecule, how does the “SrtA inhibition (result in words)” value (SrtA) read?
A: inactive

Q: With O=c1ccc2ccccc2o1 [coumarin, Coumarin] as the molecule, how does the “SrtA inhibition (result in words)” value (SrtA) read?
A: small inhibitory effect

Q: What does the source list for C[C@@H]1O[C@@H](O[C@H]2[C@H](Oc3cc(O)c4c(c3)O[C@H](c3ccc(O)cc3)CC4=O)O[C@H](CO)[C@@H](O)[C@@H]2O)[C@H](O)[C@H](O)[C@H]1O [naringin, Naringin]?
A: Maximum lethality (Daphnia magna): ≤ 30%; SrtA inhibition (result in words) (SrtA): statistically significant SrtA inhibition

Q: With COc1cc(/C=C/C(=O)O)ccc1O [trans-ferulic acid, trans-Ferulic acid] as the molecule, how does the “SrtA inhibition (result in words)” value (SrtA) read?
A: inactive

Reference: PMC5666896, “Molecular Docking and Screening Studies of New Natural Sortase A Inhibitors” (International Journal of Molecular Sciences, 2017)
